Laboratory results published in PubChem BioAssay AID256 (DTP/NCI, 2004).
Where “and” joins values, the source holds several entries; their conditions need not be identical. Equal values may be shown once. Toxic doses and inconclusive results are not listed. How the source made its calls: active means survival T/C of 150% or more; inactive means T/C below 125% in these data.

Test system: CD2F1 mice, L1210 leukemia ip, survival T/C
Test: NCI In Vivo Anticancer Drug Screen. Data for tumor model L1210 Leukemia (intraperitoneal) in CD2F1 (CDF1) mice
Settings: higher = longer survival
Method in brief: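 Transplantable tumor in mice; compound-treated vs vehicle-treated groups. Read-out = treated/control ratio of the measured endpoint.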

[1] = endpoint: mean survival time, dose: 50.0 mg/kg/injection, schedule: Q01DX009 (ip), vehicle: saline with Tween-80
[2] = endpoint: mean survival time, dose: 100.0 mg/kg/injection, schedule: Q01DX009 (ip), vehicle: saline with Tween-80
[3] = endpoint: mean survival time, dose: 200.0 mg/kg/injection, schedule: Q01DX009 (ip), vehicle: saline with Tween-80
[4] = endpoint: mean survival time, dose: 400.0 mg/kg/injection, schedule: Q01DX009 (ip), vehicle: saline with Tween-80
[5] = endpoint: mean survival time, dose: 100.0 mg/kg/injection, schedule: Q04DX003 (ip), vehicle: saline with Tween-80
[6] = endpoint: mean survival time, dose: 200.0 mg/kg/injection, schedule: Q04DX003 (ip), vehicle: saline with Tween-80
[7] = endpoint: mean survival time, dose: 400.0 mg/kg/injection, schedule: Q04DX003 (ip), vehicle: saline with Tween-80

Measured: T/C

Cc1ccc(S(=O)(=O)Cl)cc1
inactive: endpoint: mean survival time, dose: 100.0 mg/kg/injection, schedule: Q04DX002 (ip), vehicle: saline 91 % of control | endpoint: mean survival time, dose: 200.0 mg/kg/injection, schedule: Q04DX002 (ip), vehicle: saline 100 % of control

CN(C)N=Nc1cc(C(F)(F)F)cc(C(F)(F)F)c1
inactive: endpoint: mean survival time, dose: 25.0 mg/kg/injection, schedule: Q01DX009 (ip), vehicle: saline with Tween-80 104 % of control | [1] 101 % of control | [2] 98 % of control | [3] 95 % of control | [4] 104 % of control

OC1C2COC(O2)C(O)C1O (configuration not stated) (tested in a mixture with another compound)
inactive: endpoint: mean survival time, dose: 100.0 mg/kg/injection, schedule: Q01DX009 (ip), vehicle: saline 93 % of control | endpoint: mean survival time, dose: 200.0 mg/kg/injection, schedule: Q01DX009 (ip), vehicle: saline 91 % of control | endpoint: mean survival time, dose: 400.0 mg/kg/injection, schedule: Q01DX009 (ip), vehicle: saline 91 % of control

CCCCCCCCCCCCCCCCOc1ccc(S(=O)(=O)NC(C)(C)C)cc1N
inactive: [5] 96 % of control | [6] 93 % of control | [7] 95 % of control

COc1ccc(CCNC2CCCCC2O)cc1OC (configuration not stated)
inactive: endpoint: mean survival time, dose: 75.0 mg/kg/injection, schedule: Q01DX001 (ip), vehicle: saline 106 % of control | endpoint: mean survival time, dose: 150.0 mg/kg/injection, schedule: Q01DX001 (ip), vehicle: saline 98 % of control | endpoint: mean survival time, dose: 300.0 mg/kg/injection, schedule: Q01DX001 (ip), vehicle: saline 104 % of control

O=P1(O)Cc2ccccc2-c2ccccc21
inactive: [2] 100 % of control | [3] 110 % of control | [4] 98 % of control

CCCC/C=C/C1CCCCO1 (configuration not stated)
inactive: [1] 94 % of control | [2] 97 % of control | [3] 105 % of control

Nc1cccc(S(=O)(=O)NNc2cc(Cl)ccc2Cl)c1
inactive: [5] 102 % of control | [6] 96 % of control | [7] 95 % of control

Oc1c(Cl)cc(Cl)cc1C=NCCSc1ccc(Cl)cc1
inactive: endpoint: median survival time, dose: 25.0 mg/kg/injection, schedule: Q01DX009 (ip), vehicle: Klucel (hydroxypropylcellulose) (HPC) 112 % of control | endpoint: median survival time, dose: 50.0 mg/kg/injection, schedule: Q01DX009 (ip), vehicle: Klucel (hydroxypropylcellulose) (HPC) 101 % of control | endpoint: median survival time, dose: 100.0 mg/kg/injection, schedule: Q01DX009 (ip), vehicle: Klucel (hydroxypropylcellulose) (HPC) 97 % of control | endpoint: median survival time, dose: 200.0 mg/kg/injection, schedule: Q01DX009 (ip), vehicle: Klucel (hydroxypropylcellulose) (HPC) 100 % of control

O=C(Cl)C1CCCCC1
inactive: endpoint: mean survival time, dose: 100.0 mg/kg/injection, schedule: Q01DX001 (ip), vehicle: saline with Tween-80 93 % of control | endpoint: mean survival time, dose: 200.0 mg/kg/injection, schedule: Q01DX001 (ip), vehicle: saline with Tween-80 97 % of control | endpoint: mean survival time, dose: 400.0 mg/kg/injection, schedule: Q01DX001 (ip), vehicle: saline with Tween-80 89 % of control

COc1cc2oc3c(C)c(=O)cc4oc(-c5ccccc5)cc(c2c2c1CCC(c1ccccc1)O2)c43 (configuration not stated)
inactive: endpoint: median survival time, dose: 0.85 mg/kg/injection, schedule: Q01DX005 (ip), vehicle: Klucel (hydroxypropylcellulose) (HPC) 98 % of control | endpoint: median survival time, dose: 1.75 mg/kg/injection, schedule: Q01DX005 (ip), vehicle: Klucel (hydroxypropylcellulose) (HPC) 98 % of control | endpoint: median survival time, dose: 3.5 mg/kg/injection, schedule: Q01DX005 (ip), vehicle: Klucel (hydroxypropylcellulose) (HPC) 98 % of control and 102 % of control | endpoint: median survival time, dose: 7.0 mg/kg/injection, schedule: Q01DX005 (ip), vehicle: Klucel (hydroxypropylcellulose) (HPC) 100 % of control and 102 % of control | endpoint: median survival time, dose: 12.5 mg/kg/injection, schedule: Q01DX005 (ip), vehicle: saline with Tween-80 96 % of control | endpoint: median survival time, dose: 14.0 mg/kg/injection, schedule: Q01DX005 (ip), vehicle: Klucel (hydroxypropylcellulose) (HPC) 94 % of control and 96 % of control | endpoint: median survival time, dose: 25.0 mg/kg/injection, schedule: Q01DX005 (ip), vehicle: saline with Tween-80 95 % of control | endpoint: median survival time, dose: 28.0 mg/kg/injection, schedule: Q01DX005 (ip), vehicle: Klucel (hydroxypropylcellulose) (HPC) 98 % of control | endpoint: median survival time, dose: 50.0 mg/kg/injection, schedule: Q01DX005 (ip), vehicle: saline with Tween-80 96 % of control | endpoint: median survival time, dose: 56.0 mg/kg/injection, schedule: Q01DX005 (ip), vehicle: Klucel (hydroxypropylcellulose) (HPC) 101 % of control | endpoint: median survival time, dose: 100.0 mg/kg/injection, schedule: Q01DX005 (ip), vehicle: saline with Tween-80 91 % of control | endpoint: median survival time, dose: 200.0 mg/kg/injection, schedule: Q01DX005 (ip), vehicle: saline with Tween-80 95 % of control

Oc1ccc(I)cc1
inactive: endpoint: mean survival time, dose: 100.0 mg/kg/injection, schedule: Q01DX009 (ip), vehicle: other 96 % of control | endpoint: mean survival time, dose: 200.0 mg/kg/injection, schedule: Q01DX009 (ip), vehicle: other 103 % of control | endpoint: mean survival time, dose: 400.0 mg/kg/injection, schedule: Q01DX009 (ip), vehicle: other 111 % of control

CC(CP(=O)(c1ccccc1)c1ccccc1)C(O)(C(=O)c1ccccc1)c1ccccc1 (configuration not stated)
inactive: [2] 95 % of control | [5] 97 % of control | [3] 97 % of control | [6] 94 % of control | [7] 102 % of control

CC(=O)N(C)c1ccc(NC(=O)Nc2ccc(Cl)cc2C)cc1
inactive: [1] 91 % of control | [2] 88 % of control | [3] 91 % of control

O=NN1CCOC1=NCCCl
inactive: endpoint: mean survival time, dose: 3.12 mg/kg/injection, schedule: Q01DX001 (ip), vehicle: water 100 % of control | endpoint: mean survival time, dose: 6.25 mg/kg/injection, schedule: Q01DX001 (ip), vehicle: water 96 % of control | endpoint: mean survival time, dose: 12.5 mg/kg/injection, schedule: Q01DX001 (ip), vehicle: water 94 % of control | endpoint: mean survival time, dose: 25.0 mg/kg/injection, schedule: Q01DX001 (ip), vehicle: water 96 % of control | endpoint: mean survival time, dose: 50.0 mg/kg/injection, schedule: Q01DX001 (ip), vehicle: water 96 % of control | endpoint: mean survival time, dose: 100.0 mg/kg/injection, schedule: Q01DX001 (ip), vehicle: water 102 % of control | endpoint: mean survival time, dose: 200.0 mg/kg/injection, schedule: Q01DX001 (ip), vehicle: water 122 % of control

COc1cc(C(=O)C=O)cc(OC)c1OC
inactive: [1] 103 % of control | [5] 109 % of control | [6] 110 % of control

O=C(O)c1cc2c([nH]1)=C(O)NN(O)C=2
inactive: endpoint: mean survival time, dose: 12.5 mg/kg/injection, schedule: Q04DX002 (ip), vehicle: saline with Tween-80 101 % of control | endpoint: mean survival time, dose: 25.0 mg/kg/injection, schedule: Q04DX002 (ip), vehicle: saline with Tween-80 101 % of control | endpoint: mean survival time, dose: 50.0 mg/kg/injection, schedule: Q04DX002 (ip), vehicle: saline with Tween-80 111 % of control

Cc1cccc(C)c1N=C(c1ccccc1)N(O)c1ccccc1
inactive: endpoint: mean survival time, dose: 1.88 mg/kg/injection, schedule: Q01DX009 (ip), vehicle: saline with Tween-80 101 % of control | endpoint: mean survival time, dose: 1.88 mg/kg/injection, schedule: Q04DX003 (ip), vehicle: saline 93 % of control | endpoint: mean survival time, dose: 3.75 mg/kg/injection, schedule: Q01DX009 (ip), vehicle: saline with Tween-80 95 % of control | endpoint: mean survival time, dose: 3.75 mg/kg/injection, schedule: Q04DX003 (ip), vehicle: saline 96 % of control | endpoint: mean survival time, dose: 7.5 mg/kg/injection, schedule: Q01DX001 (ip), vehicle: saline 103 % of control | endpoint: mean survival time, dose: 7.5 mg/kg/injection, schedule: Q01DX009 (ip), vehicle: saline with Tween-80 98 % of control | endpoint: mean survival time, dose: 7.5 mg/kg/injection, schedule: Q04DX003 (ip), vehicle: saline 98 % of control

O=[N+]([O-])O.O=[N+]([O-])O.[NH-]C1CCCCC1[NH-].[Pt+2] (configuration not stated)
inactive: endpoint: mean survival time, dose: 0.03 mg/kg/injection, schedule: Q01DX009 (ip), vehicle: other 120 % of control | endpoint: mean survival time, dose: 0.13 mg/kg/injection, schedule: Q04DX003 (ip), vehicle: other 120 % of control | endpoint: mean survival time, dose: 0.19 mg/kg/injection, schedule: Q04DX003 (ip), vehicle: saline 119 % of control | endpoint: mean survival time, dose: 0.25 mg/kg/injection, schedule: Q01DX009 (ip), vehicle: dextrose 98 % of control | endpoint: mean survival time, dose: 0.39 mg/kg/injection, schedule: Q01DX005 (ip), vehicle: saline 119 % of control | endpoint: mean survival time, dose: 0.39 mg/kg/injection, schedule: Q04DX003 (ip), vehicle: saline 120 % of control | endpoint: mean survival time, dose: 0.5 mg/kg/injection, schedule: Q01DX001 (ip), vehicle: other 113 % of control | endpoint: mean survival time, dose: 1.0 mg/kg/injection, schedule: Q01DX009 (ip), vehicle: dextrose 119 % of control | endpoint: mean survival time, dose: 1.0 mg/kg/injection, schedule: Q01DX009 (ip), vehicle: other 90 % of control | endpoint: mean survival time, dose: 3.12 mg/kg/injection, schedule: Q01DX005 (oral), vehicle: saline 97 % of control | endpoint: mean survival time, dose: 4.0 mg/kg/injection, schedule: Q04DX003 (ip), vehicle: other 95 % of control | endpoint: mean survival time, dose: 6.25 mg/kg/injection, schedule: Q01DX005 (oral), vehicle: saline 97 % of control | endpoint: mean survival time, dose: 12.5 mg/kg/injection, schedule: Q04DX003 (ip), vehicle: saline 100 % of control

COC(=O)Nc1ccc(Cc2ccc(NC(=O)OC)cc2)cc1
inactive: [1] 121 % of control and 104 % of control | [2] 120 % of control and 110 % of control | [4] 87 % of control

O=C(CC(Cl)c1ccccc1)c1ccccc1 (configuration not stated)
inactive: [2] 91 % of control | [5] 94 % of control | [3] 96 % of control | [6] 98 % of control | [4] 91 % of control | [7] 90 % of control
